Assay results taken from US20130203649A1, “INHIBITORS OF TLR SIGNALING BY TARGETING TIR DOMAIN INTERFACES” (UNIVERSITY OF MARYLAND, BALTIMORE, priority 2012, published 2013).
Residues, ends and D or L forms follow the SMILES beside them. No end group written: not given here.

Key:
Assay type in all cases: cell-based
TLR4 [1] = experiment: LPS-induced cytokine mRNA expression in mouse macrophages (real-time RT-PCR); conditions: for LPS-induced IFNβ and Rantes cytokine mRNA production / LPS-induced IL-1β mRNA production: 5 μM peptide; for LPS-induced IFNβ and Rantes cytokine mRNA production / LPS-induced IL-1β mRNA production / LPS-induced IL-1β, IFNβ, and RANTES mRNA / LPS-induced TNFα mRNA expression: LPS 10 ng/ml, 1 h
Experimental: C57BL/6J mice were obtained from The Jackson Laboratory (Bar Harbor, Me.). Primary peritoneal macrophages were obtained by peritoneal lavage 4 days after intraperitoneal injection (3 ml) of sterile 3% thioglycolate broth. Washed cells were resuspended in RPMI 1640 which contained 2% FBS, 1% penicillin:streptomycin and 2 mM L-glutamine. After plating, cells were incubated overnight at 37° C. and then washed with PBS to remove non-adherent cells. Cells were exposed to peptides 30 min before stimulation with a TLR agonist.
Total cellular RNA was isolated using Tripure from Roche (San Francisco, Calif.) following manufacture's protocol. RNA was then reverse transcribed using AMV Reverse Transcriptase from Promega (Madison, Wis.) with poly-T priming as per manufacturer's directions. cDNA was then quantified by real-time PCR using Applied Biosystems Fast SYBR Green PCR Master Mix and an ABI Prism 7500HT cycler. Primers used for detection: hypoxanthine phosphoribosyltransferase (HPRT) (forward: […] (SEQ ID NO:51), reverse: […] (SEQ ID NO:52)), TNFα (forward: […] (SEQ ID NO:53), reverse: […] (SEQ ID NO:54)), IL-1β (forward: […] (SEQ ID NO:55), reverse: […] (SEQ ID NO:56)), IFNβ (forward: […] (SEQ ID NO:57), reverse: CTCGGACCACCATCCAGG (SEQ ID NO:58)) and RANTES (forward: […] (SEQ ID NO:59), reverse: […] (SEQ ID NO:60)). The primers were designed using Primer Express 2.0 (Applied Biosystems). Using HPRT as reference, the ΔCt method was used to calculate relative gene expression. One-way ANOVA was preformed, as well as Dunnett's multiple comparison post hoc test with a p≦0.01 selected as the level of significance.
Total RNA was isolated with Nucleospin RNA II kits (Macherey-Nagel, Bethlehem, Pa.), followed by DNase digestion. cDNA was synthesized from 1 μg RNA using Goscript transcriptase (Promega), and subjected to real-time PCR with gene-specific primers for HPRT, TNF-α, IL-1β, IFNβ, and RANTES on H7900 ABI system using Fast SYBR Green master mix (Applied Biosystems, Foster City, Calif.).
To evaluate peptide-inhibitory activities, we first measured LPS-induced cytokine mRNA expression. […] […] Decoy peptide TM4 is derived from the BB loop of TRAM TIR; we previously identified this peptide as an effective TLR4 inhibitor (19).

TLR4 [2] = experiment: Inhibition of TLR4 signaling in thioglycollate-elicited mouse macrophages (effective concentration, overall inhibitory activity); conditions: for Inhibition of TLR4 signaling (overall): LPS-stimulated mouse macrophages; for Effective conc.: TLR4 pathway, thioglycollate-elicited mouse macrophages
In short: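 Thioglycollate-elicited peritoneal macrophages from C57BL/6J mice, adherent after overnight culture in RPMI with 2% FBS; cell-permeating (Antennapedia-fused) decoy peptides added 30 min before agonist. TLR4 stimulated with E. coli K235 LPS at 100 ng/ml final.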

TLR4 [3] = experiment: LPS-induced cytokine secretion by mouse macrophages (ELISA/multiplex); conditions: for LPS-induced Rantes production: 6 h supernatants; for Decrease in LPS-induced cytokine production (FIG. 2, 8 panels): LPS 10 ng/ml for 5, 6 or 24 h
Experimental: Cytokine secretion was measured in supernatant samples collected at 6 or 24 h time points and stored at −80° C. Samples were analyzed by a multiplex assay at the University of Maryland Baltimore Cytokine Core Facility using a Luminex 100 reader and Softmax Pro software, or by ELISA kits for mouse IL-6 or TNF-α from BioLegend (San Diego, Calif.) and LT-4000 microplate reader.
A total of 2×10^6 cells was plated in 12-well plates and treated with peptides for 30 min prior to LPS stimulation. TNF-α, IL-1β, IL-6, and IFN-β were measured using ELISA kits from BioLegend (San Diego, Calif.), as recommended by the manufacturer.

## CC[C@H](C)[C@H](NC(=O)[C@H](CCCCN)NC(=O)[C@@H](NC(=O)[C@H](CCC(N)=O)NC(=O)[C@@H](N)CCCNC(=N)N)[C@@H](C)CC)C(=O)N[C@@H](Cc1c[nH]c2ccccc12)C(=O)N[C@@H](Cc1ccccc1)C(=O)N[C@@H](CCC(N)=O)C(=O)N[C@@H](CC(N)=O)C(=O)N[C@@H](CCCNC(=N)N)C(=O)N[C@@H](CCCNC(=N)N)C(=O)N[C@@H](CCSC)C(=O)N[C@@H](CCCCN)C(=O)N[C@@H](Cc1c[nH]c2ccccc12)C(=O)N[C@@H](CCCCN)C(=O)N[C@@H](CCCCN)C(=O)N[C@@H](CCC(=O)O)C(=O)N[C@@H](CC(C)C)C(=O)N[C@@H](CS)C(=O)N[C@@H](CCC(N)=O)C(=O)N[C@@H](C)C(=O)N[C@@H](CC(C)C)C(=O)N[C@@H](CO)C(=O)N[C@@H](CCCNC(=N)N)C(=O)N[C@@H](CO)C(=O)N[C@@H](Cc1c[nH]cn1)C(=O)N[C@@H](CS)C(=O)N[C@@H](CCCNC(=N)N)C(=O)O [TR5] (H-RQIKIWFQNRRMKWKKELCQALSRSHCR-OH)
TLR4 [1]
  LPS-induced IFNβ and Rantes cytokine mRNA production: significantly inhibited
  LPS-induced IL-1β mRNA production: moderately inhibited
TLR4 [1]; 20 μM peptide
  LPS-induced IL-1β, IFNβ, and RANTES mRNA: stronger inhibition
  LPS-induced TNFα mRNA expression: inhibit potently
TLR4 [2]
  Inhibition of TLR4 signaling (overall): potently inhibited
  Effective conc.: 20 µM
TLR4 [3]
  LPS-induced Rantes production: inhibited
  Decrease in LPS-induced cytokine production (FIG. 2, 8 panels): statistically significant

## RQIKIWFQNRRMKWKKAAYPPELRFMYYVD [TR9]
TLR4 [1]
  LPS-induced IFNβ and Rantes cytokine mRNA production: significantly inhibited
  LPS-induced IL-1β mRNA production: moderately inhibited
TLR4 [1]; 20 μM peptide
  LPS-induced IL-1β, IFNβ, and RANTES mRNA: stronger inhibition
  LPS-induced TNFα mRNA expression: inhibit potently
TLR4 [2]
  Inhibition of TLR4 signaling (overall): potently inhibited
  Effective conc.: 20 µM
TLR4 [3]
  LPS-induced Rantes production: inhibited
  Decrease in LPS-induced cytokine production (FIG. 2, 8 panels): statistically significant

## RQIKIWFQNRRMKWKKCLQDAIDHSGFT [TF5]
TLR4 [1]; 5 or 20 μM peptide 30 min before LPS, 1 or 5 h
  LPS-induced (TLR4-mediated) cytokine mRNA expression: inhibit
TLR4 [2]
  Effective conc.: 20 µM
TLR4 [3]; 5 or 20 μM peptide, LPS 100 ng/ml, supernatants 24 h
  LPS-induced cytokine secretion: inhibit

## RQIKIWFQNRRMKWKKEGSQASLRCF [TR3]
TLR4 [1]
  LPS-induced IFNβ and Rantes cytokine mRNA production: significantly inhibited
  LPS-induced IL-1β mRNA production: moderately inhibited
TLR4 [1]; 20 μM peptide
  LPS-induced IL-1β, IFNβ, and RANTES mRNA: stronger inhibition
  LPS-induced TNFα mRNA expression: inhibit potently
TLR4 [2]
  Inhibition of TLR4 signaling (overall): potently inhibited
TLR4 [3]
  LPS-induced Rantes production: inhibited
  Decrease in LPS-induced cytokine production (FIG. 2, 8 panels): statistically significant

## RQIKIWFQNRRMKWKKGGFYQVKEAVIHY [TR11]
TLR4 [1]
  LPS-induced IFNβ and Rantes cytokine mRNA production: significantly inhibited
  LPS-induced IL-1β mRNA production: moderately inhibited
TLR4 [1]; 20 μM peptide
  LPS-induced IL-1β, IFNβ, and RANTES mRNA: stronger inhibition
  LPS-induced TNFα mRNA expression: inhibit potently
TLR4 [2]
  Inhibition of TLR4 signaling (overall): potently inhibited
  Effective conc.: 20 µM
TLR4 [3]
  LPS-induced Rantes production: inhibited
  Decrease in LPS-induced cytokine production (FIG. 2, 8 panels): statistically significant

## RQIKIWFQNRRMKWKKPGFLRDPWCKYQML [TR6]
TLR4 [1]
  LPS-induced IFNβ and Rantes cytokine mRNA production: significantly inhibited
  LPS-induced IL-1β mRNA production: moderately inhibited
TLR4 [1]; 20 μM peptide
  LPS-induced transcriptional activation of IL-1β and IFN-β genes: blocked
  LPS-induced IL-1β, IFNβ, and RANTES mRNA: stronger inhibition
  LPS-induced TNFα mRNA expression: inhibit potently
TLR4 [2]
  Inhibition of TLR4 signaling (overall): potently inhibited
TLR4 [3]
  LPS-induced Rantes production: inhibited
  Decrease in LPS-induced cytokine production (FIG. 2, 8 panels): statistically significant
